Test results as given in PMC4508061, “Selectivity Profiling and Biological Activity of Novel β-Carbolines as Potent and Selective DYRK1 Kinase Inhibitors” (PLoS ONE, 2015).
“Also recorded” adds a separate entry of the source.

What was measured:
DAPK3 = DAPK3 (Homo sapiens, UniProt O43293); test: ProQinase radiometric kinase panel; details: mean of 2 exp.
PLK3 = PLK3 (Homo sapiens, UniProt Q9H4B4); test: ProQinase radiometric kinase panel; details: mean of 2 exp.
SYK = SYK (Homo sapiens, UniProt P43405); test: ProQinase radiometric kinase panel; details: mean of 2 exp.
STK17A = STK17A (Homo sapiens, UniProt Q9UEE5); test: ProQinase radiometric kinase panel; details: mean of 2 exp.
TBK1 = TBK1 (Homo sapiens, UniProt Q9UHD2); test: ProQinase radiometric kinase panel; details: mean of 2 exp.
Sequence of TBK1 (Q9UHD2 whole entry): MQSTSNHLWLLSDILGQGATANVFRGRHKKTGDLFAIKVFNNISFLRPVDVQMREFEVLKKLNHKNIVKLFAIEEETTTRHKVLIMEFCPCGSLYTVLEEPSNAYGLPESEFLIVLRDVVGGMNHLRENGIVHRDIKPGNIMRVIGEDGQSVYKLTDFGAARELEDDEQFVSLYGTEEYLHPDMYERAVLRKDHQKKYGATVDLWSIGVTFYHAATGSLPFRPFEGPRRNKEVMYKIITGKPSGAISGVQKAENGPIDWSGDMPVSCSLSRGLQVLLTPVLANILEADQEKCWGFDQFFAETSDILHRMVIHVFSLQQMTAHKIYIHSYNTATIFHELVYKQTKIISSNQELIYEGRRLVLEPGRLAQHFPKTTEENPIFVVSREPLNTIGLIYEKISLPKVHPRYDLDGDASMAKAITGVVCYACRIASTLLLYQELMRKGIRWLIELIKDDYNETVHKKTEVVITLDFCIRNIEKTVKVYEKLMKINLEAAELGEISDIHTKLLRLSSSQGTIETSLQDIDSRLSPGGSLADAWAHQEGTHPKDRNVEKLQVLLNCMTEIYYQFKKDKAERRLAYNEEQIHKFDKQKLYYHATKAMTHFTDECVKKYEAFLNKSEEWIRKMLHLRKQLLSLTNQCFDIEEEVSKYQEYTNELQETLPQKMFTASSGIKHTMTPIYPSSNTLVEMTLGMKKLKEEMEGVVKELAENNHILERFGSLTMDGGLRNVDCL

HeLa cells = test: Cell viability XTT assay; assay type: cell-based; details: up to 10 μM, 3 days
Cell viability XTT assay = assay type: cell-based; details: human, HeLa cells, read-out: Viability of treated cells relative to untreated control
PDGFR-beta = PDGFR-beta (Homo sapiens, UniProt P09619); test: ProQinase radiometric kinase panel; details: mean of 2 exp.
PBK = PBK (Homo sapiens, UniProt Q96KB5); test: ProQinase radiometric kinase panel; details: mean of 2 exp.
HIPK2 = HIPK2 (Homo sapiens, UniProt Q9H2X6); test: Kinase-GLO luminescent kinase assay; assay type: biochemical; design: made in house; host or cells: E. coli; details: 10 μM compound; means of at least 3 measurements
Sequence of HIPK2 (Q9H2X6 180-533): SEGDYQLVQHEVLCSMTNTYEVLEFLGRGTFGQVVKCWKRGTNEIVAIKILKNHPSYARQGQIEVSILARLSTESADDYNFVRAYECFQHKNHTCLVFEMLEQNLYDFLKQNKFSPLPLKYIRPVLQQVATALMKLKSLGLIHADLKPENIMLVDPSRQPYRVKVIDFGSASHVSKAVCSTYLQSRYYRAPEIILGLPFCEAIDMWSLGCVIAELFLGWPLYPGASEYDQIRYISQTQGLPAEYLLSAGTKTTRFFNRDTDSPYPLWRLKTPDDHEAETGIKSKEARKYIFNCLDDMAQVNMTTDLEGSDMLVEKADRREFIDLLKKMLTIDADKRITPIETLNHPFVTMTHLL
Method in brief: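 E. coli-expressed GST fusions (DYRK1A-ΔC, DYRK1B and HIPK2 catalytic domains, DYRK2) assayed in 25 mM Hepes pH 7.4, 5 mM MgCl2, 5 μM ATP with DYRKtide (20 μM for DYRKs, 100 μM for HIPK2). Kinase dosed to consume ~90% ATP; 30 min at room temperature, remaining ATP read by Kinase-GLO luminescence.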

CHK2 = CHK2 (Homo sapiens, UniProt O96017); test: ProQinase radiometric kinase panel; details: mean of 2 exp.
Sequence of CHK2 (O96017 whole entry): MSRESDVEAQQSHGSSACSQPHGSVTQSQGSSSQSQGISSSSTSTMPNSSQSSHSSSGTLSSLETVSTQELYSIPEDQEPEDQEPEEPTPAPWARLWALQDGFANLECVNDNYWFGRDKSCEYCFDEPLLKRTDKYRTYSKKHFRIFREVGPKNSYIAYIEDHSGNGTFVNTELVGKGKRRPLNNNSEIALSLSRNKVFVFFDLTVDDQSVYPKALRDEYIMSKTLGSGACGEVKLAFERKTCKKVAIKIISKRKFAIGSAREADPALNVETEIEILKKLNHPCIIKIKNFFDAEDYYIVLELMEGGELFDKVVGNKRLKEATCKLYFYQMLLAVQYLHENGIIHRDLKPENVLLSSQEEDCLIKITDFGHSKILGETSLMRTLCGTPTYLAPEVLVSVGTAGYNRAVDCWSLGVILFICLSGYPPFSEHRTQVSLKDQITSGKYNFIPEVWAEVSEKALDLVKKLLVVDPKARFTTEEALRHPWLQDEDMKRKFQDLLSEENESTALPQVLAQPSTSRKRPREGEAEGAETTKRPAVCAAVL

WNK1 = WNK1 (Homo sapiens, UniProt Q9H4A3); test: ProQinase radiometric kinase panel; details: mean of 2 exp.
Sequence of WNK1 (Q9H4A3 whole entry): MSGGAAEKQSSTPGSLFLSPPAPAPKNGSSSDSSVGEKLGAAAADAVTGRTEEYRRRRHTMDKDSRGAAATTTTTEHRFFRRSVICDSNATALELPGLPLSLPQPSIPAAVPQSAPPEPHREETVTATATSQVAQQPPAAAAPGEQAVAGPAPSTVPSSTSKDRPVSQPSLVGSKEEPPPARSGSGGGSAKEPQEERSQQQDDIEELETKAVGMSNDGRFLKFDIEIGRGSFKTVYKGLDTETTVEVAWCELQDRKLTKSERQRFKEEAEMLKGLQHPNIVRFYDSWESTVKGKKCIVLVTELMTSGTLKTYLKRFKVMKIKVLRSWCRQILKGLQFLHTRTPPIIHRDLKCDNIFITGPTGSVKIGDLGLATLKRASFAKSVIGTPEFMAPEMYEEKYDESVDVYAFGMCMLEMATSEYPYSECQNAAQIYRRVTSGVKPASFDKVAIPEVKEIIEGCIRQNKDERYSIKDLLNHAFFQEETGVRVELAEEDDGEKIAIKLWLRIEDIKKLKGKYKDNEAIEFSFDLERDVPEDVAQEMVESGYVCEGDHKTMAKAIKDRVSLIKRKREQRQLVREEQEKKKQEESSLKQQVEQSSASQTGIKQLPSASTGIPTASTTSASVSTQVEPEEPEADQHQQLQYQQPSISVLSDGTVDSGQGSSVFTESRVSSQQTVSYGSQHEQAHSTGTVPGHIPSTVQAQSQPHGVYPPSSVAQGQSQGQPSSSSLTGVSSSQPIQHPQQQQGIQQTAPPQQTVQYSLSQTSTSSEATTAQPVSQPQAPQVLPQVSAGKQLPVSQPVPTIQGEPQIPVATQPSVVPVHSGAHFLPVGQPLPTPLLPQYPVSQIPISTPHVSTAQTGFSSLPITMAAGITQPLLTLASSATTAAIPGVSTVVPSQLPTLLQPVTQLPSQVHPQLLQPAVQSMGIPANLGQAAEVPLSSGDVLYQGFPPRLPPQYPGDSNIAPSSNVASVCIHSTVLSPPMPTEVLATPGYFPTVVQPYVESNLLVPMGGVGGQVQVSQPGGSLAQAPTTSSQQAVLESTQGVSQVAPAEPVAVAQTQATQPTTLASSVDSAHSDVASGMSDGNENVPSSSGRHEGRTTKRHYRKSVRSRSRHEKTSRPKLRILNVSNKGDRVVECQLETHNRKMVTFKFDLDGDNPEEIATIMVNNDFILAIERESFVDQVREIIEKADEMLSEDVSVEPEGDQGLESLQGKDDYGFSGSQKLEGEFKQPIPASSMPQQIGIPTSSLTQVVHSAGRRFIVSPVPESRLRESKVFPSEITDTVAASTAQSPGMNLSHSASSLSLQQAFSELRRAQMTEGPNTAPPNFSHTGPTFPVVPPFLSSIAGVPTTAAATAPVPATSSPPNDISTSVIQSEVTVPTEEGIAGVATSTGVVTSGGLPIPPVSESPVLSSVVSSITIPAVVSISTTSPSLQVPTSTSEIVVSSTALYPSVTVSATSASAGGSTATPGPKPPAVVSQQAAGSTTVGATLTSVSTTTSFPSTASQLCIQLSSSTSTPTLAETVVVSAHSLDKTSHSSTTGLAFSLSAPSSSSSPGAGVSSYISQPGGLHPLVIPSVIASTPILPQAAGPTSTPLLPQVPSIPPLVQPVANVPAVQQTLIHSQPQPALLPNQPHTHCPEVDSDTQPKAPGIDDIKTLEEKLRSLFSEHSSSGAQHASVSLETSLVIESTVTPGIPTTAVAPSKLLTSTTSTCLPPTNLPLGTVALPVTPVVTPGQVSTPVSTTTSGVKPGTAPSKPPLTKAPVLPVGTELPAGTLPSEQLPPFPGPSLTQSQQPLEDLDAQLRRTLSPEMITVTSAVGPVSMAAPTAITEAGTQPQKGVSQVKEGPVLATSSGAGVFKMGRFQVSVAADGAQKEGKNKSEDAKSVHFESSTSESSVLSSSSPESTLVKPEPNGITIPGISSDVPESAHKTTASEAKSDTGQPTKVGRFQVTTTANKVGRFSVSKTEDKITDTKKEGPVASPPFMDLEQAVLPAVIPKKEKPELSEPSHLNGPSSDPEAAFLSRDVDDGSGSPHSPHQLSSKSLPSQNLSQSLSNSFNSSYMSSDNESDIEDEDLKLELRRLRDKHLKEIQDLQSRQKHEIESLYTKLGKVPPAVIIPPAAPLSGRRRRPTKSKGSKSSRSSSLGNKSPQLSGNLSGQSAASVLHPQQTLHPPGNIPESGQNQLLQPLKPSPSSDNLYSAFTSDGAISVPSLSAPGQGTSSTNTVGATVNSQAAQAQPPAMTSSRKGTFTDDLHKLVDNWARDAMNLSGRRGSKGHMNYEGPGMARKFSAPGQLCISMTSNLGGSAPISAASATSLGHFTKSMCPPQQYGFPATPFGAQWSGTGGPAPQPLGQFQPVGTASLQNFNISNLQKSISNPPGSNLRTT

PRKX = PRKX (Homo sapiens, UniProt P51817); test: ProQinase radiometric kinase panel; details: mean of 2 exp.
Sequence of PRKX (P51817 whole entry): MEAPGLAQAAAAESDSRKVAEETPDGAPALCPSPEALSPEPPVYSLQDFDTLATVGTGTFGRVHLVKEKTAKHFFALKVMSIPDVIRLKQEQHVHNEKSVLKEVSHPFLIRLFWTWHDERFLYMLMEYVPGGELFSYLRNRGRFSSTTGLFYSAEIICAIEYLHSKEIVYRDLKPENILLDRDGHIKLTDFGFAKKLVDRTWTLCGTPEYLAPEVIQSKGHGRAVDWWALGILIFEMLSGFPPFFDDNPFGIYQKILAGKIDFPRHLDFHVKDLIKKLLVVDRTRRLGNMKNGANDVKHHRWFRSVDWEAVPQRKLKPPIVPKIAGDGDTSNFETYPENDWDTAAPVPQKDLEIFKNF

MAO-A = target: T1, MAO-A (Homo sapiens, UniProt P21397); test: MAO-GLO assay; assay type: biochemical
T1 sequence (P21397 1-527): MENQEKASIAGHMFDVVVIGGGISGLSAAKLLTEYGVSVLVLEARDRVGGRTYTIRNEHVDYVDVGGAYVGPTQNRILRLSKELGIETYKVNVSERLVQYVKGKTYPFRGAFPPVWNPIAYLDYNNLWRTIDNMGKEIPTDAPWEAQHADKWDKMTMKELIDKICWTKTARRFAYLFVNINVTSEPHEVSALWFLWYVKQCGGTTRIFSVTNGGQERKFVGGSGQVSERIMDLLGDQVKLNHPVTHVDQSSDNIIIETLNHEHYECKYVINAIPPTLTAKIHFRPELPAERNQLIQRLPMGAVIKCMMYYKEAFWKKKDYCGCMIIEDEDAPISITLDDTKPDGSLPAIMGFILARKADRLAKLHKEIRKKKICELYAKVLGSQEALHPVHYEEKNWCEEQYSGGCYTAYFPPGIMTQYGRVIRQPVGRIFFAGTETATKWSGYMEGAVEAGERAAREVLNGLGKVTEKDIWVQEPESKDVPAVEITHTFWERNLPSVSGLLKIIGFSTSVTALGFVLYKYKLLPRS
Experimental: 2 were calculated. Kinase activity of DYRK1A was determined by radiometric assays using the peptide DYRKtide as a substrate. MAO-A activity was measured with the help of the MAO-GLO assay kit (Promega). IC50 values were calculated by curve fitting with the help of […]
the […] PRISM 5.0 program after automatic outlier elimination. The graphs present

PKC-iota = PKC-iota (Homo sapiens, UniProt P41743); test: ProQinase radiometric kinase panel; details: mean of 2 exp.
Sequence of PKC-iota (P41743 whole entry): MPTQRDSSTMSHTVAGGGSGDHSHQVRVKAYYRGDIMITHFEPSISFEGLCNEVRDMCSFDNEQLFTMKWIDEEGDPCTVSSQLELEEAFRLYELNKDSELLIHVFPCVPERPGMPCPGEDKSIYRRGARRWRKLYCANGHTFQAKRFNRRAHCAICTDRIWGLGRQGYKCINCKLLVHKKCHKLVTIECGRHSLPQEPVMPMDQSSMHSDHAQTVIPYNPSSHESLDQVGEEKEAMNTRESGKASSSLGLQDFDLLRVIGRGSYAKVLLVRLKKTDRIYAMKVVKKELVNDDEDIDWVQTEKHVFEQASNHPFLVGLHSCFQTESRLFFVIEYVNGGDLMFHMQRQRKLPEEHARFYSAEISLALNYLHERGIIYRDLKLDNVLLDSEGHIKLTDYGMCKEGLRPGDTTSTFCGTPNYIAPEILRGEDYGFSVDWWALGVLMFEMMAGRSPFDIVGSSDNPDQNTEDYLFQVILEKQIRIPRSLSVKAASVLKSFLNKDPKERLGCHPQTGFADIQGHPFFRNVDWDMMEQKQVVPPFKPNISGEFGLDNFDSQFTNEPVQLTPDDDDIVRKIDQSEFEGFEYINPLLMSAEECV

TGFB-R2 = TGFB-R2 (Homo sapiens, UniProt P37173); test: ProQinase radiometric kinase panel; details: mean of 2 exp.
TTK = TTK (Homo sapiens, UniProt P33981); test: ProQinase radiometric kinase panel; details: mean of 2 exp.
TSK2 = TSK2 (Homo sapiens, UniProt Q96PF2); test: ProQinase radiometric kinase panel; details: mean of 2 exp.
S6K = S6K (Homo sapiens, UniProt P23443); test: ProQinase radiometric kinase panel; details: mean of 2 exp.
RPS6KA2 = RPS6KA2 (Homo sapiens, UniProt Q15349); test: ProQinase radiometric kinase panel; details: mean of 2 exp.
TSF1 = TSF1 (Homo sapiens, UniProt O75716); test: ProQinase radiometric kinase panel; details: mean of 2 exp.
GRK6 = GRK6 (Homo sapiens, UniProt P43250); test: ProQinase radiometric kinase panel; details: mean of 2 exp.
HIPK1 = HIPK1 (Homo sapiens, UniProt Q86Z02); test: ProQinase radiometric kinase panel; details: mean of 2 exp.
CDK9/CycK = CDK9/CycK (Homo sapiens, UniProt P50750); test: ProQinase radiometric kinase panel; details: mean of 2 exp.

COc1ccc2c3ccnc(Cl)c3n(CC#N)c2c1 [AnnH75]
residual activity at 1 µM, Mean (DAPK3): 98 % of control | residual activity at 1 µM, Mean (PLK3): 96 % of control | residual activity at 1 µM, Mean (SYK): 101 % of control | residual activity at 1 µM, Mean (STK17A): 89 % of control | residual activity at 1 µM, Mean (TBK1): 94 % of control | cytotoxicity (HeLa cells): minimal cytotoxicity | viability at 3 days, 1 µM (Cell viability XTT assay; 1 μM): 100% | viability at 3 days, 3 µM (Cell viability XTT assay; 3 μM): 93% | residual activity at 1 µM, Mean (PDGFR-beta): 88 % of control | residual activity at 1 µM, Mean (PBK): 94 % of control | Residual activity (% of control) HIPK2 (HIPK2): 85 % of control | residual activity at 1 µM, Mean (CHK2): 102 % of control | residual activity at 1 µM, Mean (WNK1): 98 % of control | residual activity at 1 µM, Mean (PRKX): 80 % of control | effect on MAO-A (MAO-A): complete elimination of MAO-A inhibition; also recorded: no residual effect on MAO-A | IC50 (MAO-A; n = 3–5 concentration response curves, read-out: Inhibition of MAO-A IC50): > 10 µM | residual activity at 1 µM, Mean (PKC-iota): 102 % of control | residual activity at 1 µM, Mean (TGFB-R2): 83 % of control | residual activity at 1 µM, Mean (TTK): 91 % of control | residual activity at 1 µM, Mean (TSK2): 92 % of control | residual activity at 1 µM, Mean (S6K): 85 % of control | residual activity at 1 µM, Mean (RPS6KA2): 97 % of control | residual activity at 1 µM, Mean (TSF1): 97 % of control | residual activity at 1 µM, Mean (GRK6): 98 % of control | residual activity at 1 µM, Mean (HIPK1): 91 % of control | residual activity at 1 µM, Mean (CDK9/CycK): 52 % of control
